Measurements reported in patent US20220289732A1, “HETEROCYCLIC WDR5 INHIBITORS AS ANTI-CANCER COMPOUNDS” (NOVARTIS AG, priority 2019, published 2022).

Experiments:
MV4-11 cells = experiment: MV4-11 6-day cell growth CTG (CellTiter-Glo) assay; type: cell-based; details: Homo sapiens, MV4-11, 144 h, 6 days, read-out: (c) MLL/WDR5 cell proliferation assay//MLL/WDR5 proliferation MV4:11 Qualified AC50
In short: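 Exponentially growing MV4-11 AML cells (RPMI 1640, 10% FBS) seeded at 300 cells/well with 12-point 1:3 compound dilutions, top final concentration 50 μM. Viability read by CellTiter-Glo luminescence after 6 days at 37° C; % inhibition vs DMSO-only wells fitted to dose-response for IC50.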

[1] = target: wild type MLL1 four-member complex (MLL1-4C) (Homo sapiens, UniProt P61964); experiment: MLL1 LC-MS assay (SAH production); type: biochemical; details: read-out: (b) MLL LCMS Peptide Val.v.1 Qualified AC50
In short: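 MLL1-4C (30 nM final) was preincubated 20 min with compound (3-fold dilutions, 8 or 12 points) and SAM in Tris-HCl pH 8.0 buffer. H3K4me0 peptide (histone H3[1-21]-biotin) was then added, giving final 2.5 μM SAM and 10 μM substrate, and reactions ran 120 min at rt. After TFA/d4-SAH quench, SAH was quantified by LC-MS/MS and IC50 fitted from control-normalised activity.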

WDR5 = WDR5 (Homo sapiens, UniProt P61964); experiment: WDR5 HTRF binding assay; details: read-out: (a) WDR5 HTRF Pep Val v.1[Inhibitor/IC50]Qualified AC50
In short: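 6 nM WDR5 and 20 nM biotin-MLL1 WIN peptide (3762-3773) were incubated with compound (12-point, 3-fold dilutions) in pH 7.5 Hepes/NaCl/DTT buffer for 20 min at rt. Streptavidin-APC plus anti-His-Eu were then added for 1 hr, with HTRF read at 665/615. IC50 was fit from control-normalized activity; the counter assay used 15 nM biotin-PEG-His peptide.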

Row | AC50 [1] [µM] | IC50 (WDR5) [µM] | Structure (SMILES) | AC50 (MV4-11 cells) [µM]
1 | 0.01 to 1 | 0.01 to 1 | CNc1nccn1Cc1cc(CN2CC(F)C2)c2c(c1)C(=O)N(Cc1cc(OC)c(F)cn1)CC2 [Example 30, 2-((5-fluoro-4-methoxypyridin-2-yl)methyl)-5-((3-fluoroazetidin-1-yl)methyl)-7-((2-(methylamino)-1H-imidazol-1-yl)methyl)-3,4-dihydroisoquinolin-1(2H)-one] | 0.01 to 1
2 | 0.01 to 1 | 0.01 to 1 | CNc1nccn1Cc1cc(CN2CC(OC)C2)c2c(c1)C(=O)N([C@@H](C)c1cc(OC)c(F)cn1)CC2 [Example 31, (S)-2-(1-(5-fluoro-4-methoxypyridin-2-yl)ethyl)-5-((3-methoxyazetidin-1-yl)methyl)-7-((2-(methylamino)-1H-imidazol-1-yl)methyl)-3,4-dihydroisoquinolin-1(2H)-one] | 0.01 to 1
3 | 0.01 to 1 | 0.01 to 1 | CCOc1cc([C@H](C)N2CCc3c(CN(C)C)cc(Cn4ccnc4NC)cc3C2=O)cnc1C#N [Example 32, (S)-5-(1-(5-((dimethylamino)methyl)-7-((2-(methylamino)-1H-imidazol-1-yl)methyl)-1-oxo-3,4-dihydroisoquinolin-2(1H)-yl)ethyl)-3-ethoxypicolinonitrile] | 0.01 to 1
4 | 0.01 to 1 | 0.01 to 1 | CNc1nccn1Cc1cc(CN2CC(F)C2)c2c(c1)C(=O)N(Cc1cnc(F)c(OC)c1)CC2 [Example 33, 2-((6-fluoro-5-methoxypyridin-3-yl)methyl)-5-((3-fluoroazetidin-1-yl)methyl)-7-((2-(methylamino)-1H-imidazol-1-yl)methyl)-3,4-dihydroisoquinolin-1(2H)-one] | 0.01 to 1
5 | 0.01 to 1 | 0.01 to 1 | CNc1nccn1Cc1cc(CN2CC(F)(F)C2)c2c(c1)C(=O)N([C@@H](C)c1cnc(F)c(OC)c1)CC2 [Example 34, (S)-5-((3,3-difluoroazetidin-1-yl)methyl)-2-(1-(6-fluoro-5-methoxypyridin-3-yl)ethyl)-7-((2-(methylamino)-1H-imidazol-1-yl)methyl)-3,4-dihydroisoquinolin-1(2H)-one] | 0.01 to 1
6 | 0.01 to 1 | 0.01 to 1 | CNc1nccn1Cc1cc(CN(C)CC(F)F)c2c(c1)C(=O)N([C@@H](C)c1cc(OC)c(F)cn1)CC2 [Example 35, (S)-5-(((2,2-difluoroethyl)(methyl)amino)methyl)-2-(1-(5-fluoro-4-methoxypyridin-2-yl)ethyl)-7-((2-(methylamino)-1H-imidazol-1-yl)methyl)-3,4-dihydroisoquinolin-1(2H)-one] | 0.01 to 1
7 | 0.01 to 1 | 0.01 to 1 | CNc1nccn1Cc1cc(CN2CC[C@@H](OC)C2)c2c(c1)C(=O)N([C@@H](C)c1cc(OC)c(F)cn1)CC2 [Example 36, 2-((S)-1-(5-fluoro-4-methoxypyridin-2-yl)ethyl)-5-(((R)-3-methoxypyrrolidin-1-yl)methyl)-7-((2-(methylamino)-1H-imidazol-1-yl)methyl)-3,4-dihydroisoquinolin-1(2H)-one] | 0.01 to 1
8 | 0.01 to 1 | 0.01 to 1 | CCOc1cc([C@H](C)N2CCc3c(CN4CC[C@H](F)C4)cc(Cn4ccnc4NC)cc3C2=O)ncc1F [Example 37, 2-((S)-1-(4-ethoxy-5-fluoropyridin-2-yl)ethyl)-5-(((S)-3-fluoropyrrolidin-1-yl)methyl)-7-((2-(methylamino)-1H-imidazol-1-yl)methyl)-3,4-dihydroisoquinolin-1(2H)-one] | 0.01 to 1
9 | 0.01 to 1 | 0.01 to 1 | CNc1nccn1Cc1cc(CN2CC(F)(F)C2)c2c(c1)C(=O)N(Cc1cc(OC)c(F)cn1)CC2 [Example 38, 5-((3,3-difluoroazetidin-1-yl)methyl)-2-((5-fluoro-4-methoxypyridin-2-yl)methyl)-7-((2-(methylamino)-1H-imidazol-1-yl)methyl)-3,4-dihydroisoquinolin-1(2H)-one] | 0.01 to 1
10 | 0.01 to 1 | 0.01 to 1 | CCOc1cc([C@H](C)N2CCc3c(CN4CC(F)C4)cc(Cn4ccnc4NC)cc3C2=O)ncc1F [Example 39, (S)-2-(1-(4-ethoxy-5-fluoropyridin-2-yl)ethyl)-5-((3-fluoroazetidin-1-yl)methyl)-7-((2-(methylamino)-1H-imidazol-1-yl)methyl)-3,4-dihydroisoquinolin-1(2H)-one] | 0.01 to 1
11 | 0.01 to 1 | 0.01 to 1 | CCOc1cc([C@H](C)N2CCc3c(CN4CC(F)(F)C4)cc(Cn4ccnc4NC)cc3C2=O)ncc1C#N [Example 40, (S)-6-(1-(5-((3,3-difluoroazetidin-1-yl)methyl)-7-((2-(methylamino)-1H-imidazol-1-yl)methyl)-1-oxo-3,4-dihydroisoquinolin-2(1H)-yl)ethyl)-4-ethoxynicotinonitrile] | 0.01 to 1
12 | 0.01 to 1 | 0.01 to 1 | CCOc1cc([C@H](C)N2CCc3c(CN4CC(F)C4)cc(Cn4ccnc4NC)cc3C2=O)cnc1C#N [Example 41, (S)-3-ethoxy-5-(1-(5-((3-fluoroazetidin-1-yl)methyl)-7-((2-(methylamino)-1H-imidazol-1-yl)methyl)-1-oxo-3,4-dihydroisoquinolin-2(1H)-yl)ethyl)picolinonitrile] | 0.01 to 1
13 | 0.01 to 1 | 0.01 to 1 | CNc1nccn1Cc1cc(CN2CC(F)C2)c2c(c1)C(=O)N([C@@H](C)c1cc(OC)c(F)cn1)CC2 [Example 42] | 0.01 to 1
14 | 0.01 to 1 | 0.01 to 1 | CNc1nccn1Cc1cc(CN2CC(F)C2)c2c(c1)C(=O)N([C@@H](C)c1cnc(F)c(OC)c1)CC2 [Example 43, (S)-2-(1-(6-fluoro-5-methoxypyridin-3-yl)ethyl)-5-((3-fluoroazetidin-1-yl)methyl)-7-((2-(methylamino)-1H-imidazol-1-yl)methyl)-3,4-dihydroisoquinolin-1(2H)-one] | 0.01 to 1
15 | 0.01 to 1 | 0.01 to 1 | CNc1nccn1Cc1cc(CN2CC[C@H](F)C2)c2c(c1)C(=O)N([C@@H](C)c1cc(OC)c(F)cn1)CC2 [Example 44, 2-((S)-1-(5-fluoro-4-methoxypyridin-2-yl)ethyl)-5-(((S)-3-fluoropyrrolidin-1-yl)methyl)-7-((2-(methylamino)-1H-imidazol-1-yl)methyl)-3,4-dihydroisoquinolin-1(2H)-one] | 0.01 to 1
16 | 0.01 to 1 | 0.01 to 1 | CNc1nccn1Cc1cc(CN(C)C)c2c(c1)C(=O)N([C@@H](C)c1cc(OC)c(C#N)cn1)CC2 [Example 45, (S)-6-(1-(5-((dimethylamino)methyl)-7-((2-(methylamino)-1H-imidazol-1-yl)methyl)-1-oxo-3,4-dihydroisoquinolin-2(1H)-yl)ethyl)-4-methoxynicotinonitrile] | 0.01 to 1
17 | 0.01 to 1 | 0.01 to 1 | CCOc1cc(CN2CCc3c(CN4CC(F)(F)C4)cc(Cn4ccnc4NC)cc3C2=O)cnc1C#N [Example 46, 5-((5((3,3-difluoroazetidin-1-yl)methyl)-7-((2-(methylamino)-1H-imidazol-1-yl)methyl)-1-oxo-3,4-dihydroisoquinolin-2(1H)-yl)methyl)-3-ethoxypicolinonitrile] | 0.01 to 1
18 | 0.01 to 1 | 0.01 to 1 | CNc1nccn1Cc1cc(CN(C)CC(F)(F)F)c2c(c1)C(=O)N([C@@H](C)c1cc(OC)c(F)cn1)CC2 [Example 47, (S)-2-(1-(5-fluoro-4-methoxypyridin-2-yl)ethyl)-5-((methyl(2,2,2-trifluoroethyl)amino)methyl)-7-((2-(methylamino)-1H-imidazol-1-yl)methyl)-3,4-dihydroisoquinolin-1(2H)-one] | 0.01 to 1
19 | 0.01 to 1 | 0.01 to 1 | CNc1nccn1Cc1cc(CN2CC(F)(F)C2)c2c(c1)C(=O)N([C@@H](C)c1cc(OC)c(F)cn1)CC2 [Example 48, (S)-5-((3,3-difluoroazetidin-1-yl)methyl)-2-(1-(5-fluoro-4-methoxypyridin-2-yl)ethyl)-7-((2-(methylamino)-1H-imidazol-1-yl)methyl)-3,4-dihydroisoquinolin-1(2H)-one] | 0.01 to 1
20 | 0.01 to 1 | 0.01 to 1 | CNc1nccn1Cc1cc(CN(C)CCF)c2c(c1)C(=O)N([C@@H](C)c1cc(OC)c(F)cn1)CC2 [Example 49, (S)-2-(1-(5-fluoro-4-methoxypyridin-2-yl)ethyl)-5-(((2-fluoroethyl)(methyl)amino)methyl)-7-((2-(methylamino)-1H-imidazol-1-yl)methyl)-3,4-dihydroisoquinolin-1(2H)-one] | 0.01 to 1
21 | 0.01 to 1 | 0.01 to 1 | CCOc1cc([C@H](C)N2CCc3c(CN(C)C)cc(Cn4ccnc4NC)cc3C2=O)ncc1C#N [Example 50, (S)-6-(1-(5-((dimethylamino)methyl)-7-((2-(methylamino)-1H-imidazol-1-yl)methyl)-1-oxo-3,4-dihydroisoquinolin-2(1H)-yl)ethyl)-4-ethoxynicotinonitrile] | 0.01 to 1
